Data: ChEMBL document CHEMBL3638798, “Metastin derivative and use thereof” (2013)

Target: KiSS-1 receptor (Homo sapiens, UniProt Q969F8)
Test: Binding Assay: Binding inhibition assay using human GPR54.

Sequence of KiSS-1 receptor (Q969F8 whole entry): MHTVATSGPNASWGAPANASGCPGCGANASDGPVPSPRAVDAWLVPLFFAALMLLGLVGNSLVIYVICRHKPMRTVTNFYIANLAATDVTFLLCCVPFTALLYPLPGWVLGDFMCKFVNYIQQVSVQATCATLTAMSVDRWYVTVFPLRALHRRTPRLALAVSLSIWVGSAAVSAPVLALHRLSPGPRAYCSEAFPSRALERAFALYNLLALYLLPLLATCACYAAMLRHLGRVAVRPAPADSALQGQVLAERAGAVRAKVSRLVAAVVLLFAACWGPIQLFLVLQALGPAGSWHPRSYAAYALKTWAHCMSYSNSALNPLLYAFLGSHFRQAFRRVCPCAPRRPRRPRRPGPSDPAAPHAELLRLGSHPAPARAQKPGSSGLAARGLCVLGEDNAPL

- IC50: 0.71 nM
Structure (SMILES): CNCC(=O)N[C@@H](CC(C)C)C(C)=O
